13 compounds from PubChem BioAssay (NCI) can be followed below.

Some test systems named below: A498 renal; ACHN renal; HCT-15 colon; NCI-H226 lung; OVCAR-3 ovarian; RPMI-8226 leukemia; SK-MEL-5 melanoma; SNB-75 CNS; UACC-257 melanoma; SR leukemia.
What all share (assay): NCI tumour cell line growth inhibition, 48 h

Each structure is given as a SMILES string.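 A five-concentration, 48-hour dose response in 96-well plates underlies each endpoint, interpolated linearly between surrounding concentrations. Abbreviation: GI50, concentration required for 50% inhibition of growth. TGI denotes the concentration required for complete inhibition of growth.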

Take `COc1ccc(Nc2ncccc2C(=O)NCc2cn(Cc3cccc(Oc4ccccc4)c3)nn2)c(OC)c1`: the GI50 with A498 renal was 1.33 µM; in the assay on ACHN renal, 3.94 µM; in the assay with HCT-15 colon, 1.68 µM; in the assay on NCI-H226 lung it was 2.72 µM; with OVCAR-3 ovarian it was 1.11 µM; with RPMI-8226 leukemia it was 5.33 µM. Besides, the GI50 in the assay on SK-MEL-5 melanoma is 0.635 µM; in the assay with SNB-75 CNS, 3.64 µM; in the assay on UACC-257 melanoma it was 13.4 µM. The TGI was 13 µM with A498 renal; over 100 µM with ACHN renal; over 100 µM in the assay with HCT-15 colon; over 26.7 µM in the assay on NCI-H226 lung; 4.78 µM in the assay with OVCAR-3 ovarian; over 100 µM in the assay with RPMI-8226 leukemia. For the same compound, the TGI in the assay on SK-MEL-5 melanoma is 7.93 µM; with SNB-75 CNS, over 84.5 µM; with UACC-257 melanoma it was over 100 µM.

As to `COc1cc([C@@H]2c3cc4c(cc3[C@@H](NC(=O)c3ccc(OC(C)=O)cc3)C3COC(=O)[C@@H]32)OCO4)cc(OC)c1O` (some centres undefined), the TGI in the assay on A498 renal is 8.75 µM; with ACHN renal, 3.16 µM; with HCT-15 colon it was 24.4 µM; with NCI-H226 lung, 4.46 µM; in the assay with OVCAR-3 ovarian, 22.3 µM; in the assay with RPMI-8226 leukemia it was 13.2 µM. In addition, the TGI is 13.2 µM in the assay on SK-MEL-5 melanoma, 5.86 µM in the assay with SNB-75 CNS and 31.9 µM with UACC-257 melanoma.

As for `Cc1nc(-n2nc(-c3ccccc3)cc2-c2ccccc2)sc1C(/C=C/c1ccc([N+](=O)[O-])cc1)=N/NC(N)=S`, the TGI in the assay with A498 renal was over 100 µM; in the assay on ACHN renal, over 100 µM; with HCT-15 colon, over 100 µM; with NCI-H226 lung, over 100 µM; in the assay on OVCAR-3 ovarian, over 100 µM; in the assay on RPMI-8226 leukemia it was 45 µM. The TGI with SK-MEL-5 melanoma, in the assay with SNB-75 CNS and in the assay on UACC-257 melanoma was over 100 µM in each case.

For the compound `Cc1cc(C)c(C(=O)/C(=C/c2ccccc2)c2ccccc2)c(C)c1`, the TGI with ACHN renal, with HCT-15 colon, with NCI-H226 lung, in the assay with OVCAR-3 ovarian, in the assay on RPMI-8226 leukemia and in the assay on SK-MEL-5 melanoma was over 100 µM throughout. Further, the TGI with SNB-75 CNS, in the assay on SR leukemia and in the assay with UACC-257 melanoma was over 100 µM in each case.

Turning to `c1cnc2nc3n(c2c1)CSC3`, the TGI in the assay with A498 renal, in the assay with ACHN renal, with HCT-15 colon, in the assay with NCI-H226 lung, with OVCAR-3 ovarian and in the assay on RPMI-8226 leukemia was over 100 µM throughout. The TGI in the assay with SK-MEL-5 melanoma, in the assay on SNB-75 CNS and in the assay with UACC-257 melanoma was over 100 µM in each case.

In the case of `COc1cc(CC2C(=O)OCC2[C@@H](OC(C)=O)c2ccc3c(c2)OCO3)c(Br)c(OC)c1OC` (some centres undefined), the TGI in the assay with ACHN renal, in the assay with HCT-15 colon, with OVCAR-3 ovarian, with SK-MEL-5 melanoma, with SNB-75 CNS and in the assay with SR leukemia was over 100 µM throughout. In the assay on UACC-257 melanoma, the TGI is over 100 µM.

For `Cc1ccc(S(=O)(=O)OC2CSSCC2OS(=O)(=O)c2ccc(C)cc2)cc1` (centres undefined), the TGI in the assay on ACHN renal came out at 28.9 µM; in the assay with HCT-15 colon, 22.5 µM; with NCI-H226 lung, 33.6 µM; in the assay with OVCAR-3 ovarian, 26.2 µM; in the assay with RPMI-8226 leukemia, 46.3 µM; with SK-MEL-5 melanoma it was 29.7 µM. In addition, the results for the TGI in the assay with SNB-75 CNS, with SR leukemia and with UACC-257 melanoma were 28.1 µM, 38.8 µM and 22.8 µM, respectively.

In the case of `CCCCc1c2c(nc3c1CCCC3=O)CCCC2`, the TGI in the assay on ACHN renal was over 100 µM; in the assay on HCT-15 colon, over 100 µM; in the assay with NCI-H226 lung, 65.6 µM; in the assay on OVCAR-3 ovarian, over 100 µM; in the assay with RPMI-8226 leukemia it was over 100 µM; with SK-MEL-5 melanoma, over 100 µM. For the same compound, the TGI in the assay with SR leukemia is over 100 µM.

As for `O=c1sc(-c2nc3ccccc3[nH]2)c(/N=C/c2ccccc2)n1-c1ccccc1`, the TGI with A498 renal was over 100 µM; in the assay on ACHN renal, over 100 µM; with HCT-15 colon it was over 100 µM; in the assay with NCI-H226 lung, 38.3 µM; in the assay on OVCAR-3 ovarian, 65.6 µM; in the assay with RPMI-8226 leukemia, over 100 µM. Besides, the values for the TGI in the assay on SK-MEL-5 melanoma, with SNB-75 CNS and with UACC-257 melanoma were over 100 µM, 57.8 µM and over 100 µM, respectively.

`COc1cc(=O)oc(/C=C/CO)c1C`: the TGI in the assay on A498 renal, in the assay on ACHN renal, with NCI-H226 lung, in the assay with OVCAR-3 ovarian, in the assay with SK-MEL-5 melanoma and in the assay with SNB-75 CNS was over 100 µM each time. The TGI with SR leukemia and in the assay with UACC-257 melanoma was over 100 µM each time.

Take `Cc1cc(N(CCC#N)CCC#N)ccc1CC1N=C(c2ccccc2)OC1=O` (centres undefined): the TGI with A498 renal, in the assay on ACHN renal, in the assay with HCT-15 colon, in the assay with NCI-H226 lung, in the assay on OVCAR-3 ovarian and with RPMI-8226 leukemia was over 100 µM each time. For the same compound, the TGI with SK-MEL-5 melanoma, with SNB-75 CNS and in the assay on UACC-257 melanoma was over 100 µM in each case.

As to `Cn1cc(-c2ccc3nnc(C(F)(F)c4ccc5ncccc5c4)n3n2)cn1`, the GI50 with A498 renal is 24.8 µM; in the assay on ACHN renal, 32.8 µM; in the assay on HCT-15 colon, 73 µM; in the assay on NCI-H226 lung it was 58.5 µM; with OVCAR-3 ovarian, 80.5 µM; in the assay with RPMI-8226 leukemia it was 88.6 µM. In addition, the GI50 in the assay on SK-MEL-5 melanoma is 43.2 µM; with SNB-75 CNS it was 22.2 µM; in the assay on UACC-257 melanoma, over 100 µM. Further, the TGI in the assay with A498 renal, in the assay on ACHN renal, in the assay with HCT-15 colon, in the assay with NCI-H226 lung, in the assay on OVCAR-3 ovarian and in the assay with RPMI-8226 leukemia was over 100 µM throughout. In addition, the TGI with SK-MEL-5 melanoma is over 100 µM; in the assay with SNB-75 CNS, over 92.4 µM; with UACC-257 melanoma it was over 100 µM.

As to `Cc1cc(C)c(C2=NO[C@@H]3C(=O)N(c4ccc(Cc5ccc(N6C(=O)[C@H]7C(c8c(C)cc(C)cc8C)=NO[C@H]7C6=O)cc5)cc4)C(=O)[C@H]23)c(C)c1`, the TGI in the assay with A498 renal, in the assay with HCT-15 colon, with NCI-H226 lung, in the assay with OVCAR-3 ovarian, with RPMI-8226 leukemia and with SK-MEL-5 melanoma was over 100 µM in each case. The TGI with SNB-75 CNS and in the assay with UACC-257 melanoma was over 100 µM each time.
